Test results reported in PubChem BioAssay AID1919005 (Molecular Pharmacology Branch, DTP, NCI, 2023).
“And” between values parts separate entries of the source, which are not always exact repeats. Equal values may be shown once.

Test system: 855422-203-R-J1-PDC complex spheroid growth
Test: Anticancer human tumor 855422-203-R-J1-PDC patient-derived bladder carcinoma cell line growth inhibition [AhR]
Conditions: for viability, T/C: stronger effect = lower value
How it was run: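 Spheroids combined tumor cells with HUVEC endothelial cells and human MSCs as stroma. AhR antagonists were paired with standard or investigational drugs, each dosed in half-log steps down from near clinical Cmax, or from 10 microM where Cmax was unknown.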

[1] = curve of first compound, second compound 0.1 µM
[2] = curve of first compound, second compound 0.316 µM
[3] = curve of first compound, second compound 1 µM
[4] = curve of first compound, second compound 3.16 µM
[5] = curve of first compound, second compound 10 µM
[6] = second compound 0.1 µM, first compound 0.0316 µM
[7] = second compound 0.1 µM, first compound 0.1 µM
[8] = second compound 0.1 µM, first compound 0.316 µM
[9] = second compound 0.1 µM, first compound 1 µM
[10] = second compound 0.1 µM, first compound 3.16 µM
[11] = second compound 0.1 µM, first compound 10 µM
[12] = second compound 0.316 µM, first compound 0.0316 µM
[13] = second compound 0.316 µM, first compound 0.1 µM
[14] = second compound 0.316 µM, first compound 0.316 µM
[15] = second compound 0.316 µM, first compound 1 µM
[16] = second compound 0.316 µM, first compound 3.16 µM
[17] = second compound 0.316 µM, first compound 10 µM
[18] = second compound 1 µM, first compound 0.0316 µM
[19] = second compound 1 µM, first compound 0.1 µM
[20] = second compound 1 µM, first compound 0.316 µM
[21] = second compound 1 µM, first compound 1 µM
[22] = second compound 1 µM, first compound 3.16 µM
[23] = second compound 1 µM, first compound 10 µM
[24] = second compound 3.16 µM, first compound 0.0316 µM
[25] = second compound 3.16 µM, first compound 0.1 µM
[26] = second compound 3.16 µM, first compound 0.316 µM
[27] = second compound 3.16 µM, first compound 1 µM
[28] = second compound 3.16 µM, first compound 3.16 µM
[29] = second compound 3.16 µM, first compound 10 µM
[30] = second compound 10 µM, first compound 0.0316 µM
[31] = second compound 10 µM, first compound 0.1 µM
[32] = second compound 10 µM, first compound 0.316 µM
[33] = second compound 10 µM, first compound 1 µM
[34] = second compound 10 µM, first compound 3.16 µM
[35] = second compound 10 µM, first compound 10 µM
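Further: spheroids exposed to agents for seven days before readout.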
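Wherever viability, T/C is given: percent of DMSO vehicle control luminescence viability.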

Nc1ccccc1NC(=O)c1ccc(CNC(=O)OCc2cccnc2)cc1 + Cc1cncc(-c2nc(NCCc3c[nH]c4ccccc34)c3ncn(C(C)C)c3n2)c1
IC50 [1]: 2660 nM | IC50 [2]: 2310 nM | IC50 [3]: 2010 nM | IC50 [4]: 475 nM | IC50 [5]: < 31.6 nM | viability, T/C [6]: 88.7% | viability, T/C [7]: 81.7% | viability, T/C [8]: 76.4% | viability, T/C [9]: 74.3% | viability, T/C [10]: 45.2% | viability, T/C [11]: 5.46% | viability, T/C [12]: 86.9% | viability, T/C [13]: 83.7% | viability, T/C [14]: 69.5% | viability, T/C [15]: 76.4% | viability, T/C [16]: 40.7% | viability, T/C [17]: 5.76% | viability, T/C [18]: 88.7% | viability, T/C [19]: 87.9% | viability, T/C [20]: 78.2% | viability, T/C [21]: 73.9% | viability, T/C [22]: 35.4% | viability, T/C [23]: 4.53% | viability, T/C [24]: 82.2% | viability, T/C [25]: 73.8% | viability, T/C [26]: 63.9% | viability, T/C [27]: 26.4% | viability, T/C [28]: 22.1% | viability, T/C [29]: 5.42% | viability, T/C [30]: 7.49% | viability, T/C [31]: 5.93% | viability, T/C [32]: 0.88% | viability, T/C [33]: 0.3% | viability, T/C [34]: 0.17% | viability, T/C [35]: 0.17%

CCc1c2c(nc3ccc(O)cc13)-c1cc3c(c(=O)n1C2)COC(=O)[C@]3(O)CC + Cc1ccccc1N=Nc1ccc(NC(=O)c2ccnn2C)c(C)c1
IC50 [1]: 18.1 nM | IC50 [2]: 15.5 nM | IC50 [3]: 11.5 nM | IC50 [4]: 7.01 nM | IC50 [5]: 5.43 nM | viability, T/C (second compound 0.1 µM, first compound 0.000949 µM): 107% | viability, T/C (second compound 0.1 µM, first compound 0.003 µM): 98.3% | viability, T/C (second compound 0.1 µM, first compound 0.00949 µM): 75.5% | viability, T/C (second compound 0.1 µM, first compound 0.03 µM): 29.6% | viability, T/C (second compound 0.1 µM, first compound 0.0949 µM): 17.4% | viability, T/C (second compound 0.1 µM, first compound 0.3 µM): 11.5% | viability, T/C (second compound 0.316 µM, first compound 0.000949 µM): 98.3% | viability, T/C (second compound 0.316 µM, first compound 0.003 µM): 93.7% | viability, T/C (second compound 0.316 µM, first compound 0.00949 µM): 68.1% | viability, T/C (second compound 0.316 µM, first compound 0.03 µM): 25.2% | viability, T/C (second compound 0.316 µM, first compound 0.0949 µM): 14.6% | viability, T/C (second compound 0.316 µM, first compound 0.3 µM): 9.09% | viability, T/C (second compound 1 µM, first compound 0.000949 µM): 102% | viability, T/C (second compound 1 µM, first compound 0.003 µM): 95.3% | viability, T/C (second compound 1 µM, first compound 0.00949 µM): 55.5% | viability, T/C (second compound 1 µM, first compound 0.03 µM): 20.7% | viability, T/C (second compound 1 µM, first compound 0.0949 µM): 14% | viability, T/C (second compound 1 µM, first compound 0.3 µM): 9.24% | viability, T/C (second compound 3.16 µM, first compound 0.000949 µM): 92.3% | viability, T/C (second compound 3.16 µM, first compound 0.003 µM): 81.8% | viability, T/C (second compound 3.16 µM, first compound 0.00949 µM): 36.8% | viability, T/C (second compound 3.16 µM, first compound 0.03 µM): 21.7% | viability, T/C (second compound 3.16 µM, first compound 0.0949 µM): 13% | viability, T/C (second compound 3.16 µM, first compound 0.3 µM): 7.68% | viability, T/C (second compound 10 µM, first compound 0.000949 µM): 76.5% | viability, T/C (second compound 10 µM, first compound 0.003 µM): 73.4% | viability, T/C (second compound 10 µM, first compound 0.00949 µM): 28.1% | viability, T/C (second compound 10 µM, first compound 0.03 µM): 22% | viability, T/C (second compound 10 µM, first compound 0.0949 µM): 13.7% | viability, T/C (second compound 10 µM, first compound 0.3 µM): 9.18%

CC1(C)CCC(CN2CCN(c3ccc(C(=O)NS(=O)(=O)c4ccc(NCC5CCOCC5)c([N+](=O)[O-])c4)c(Oc4cnc5[nH]ccc5c4)c3)CC2)=C(c2ccc(Cl)cc2)C1 + Cc1ccccc1N=Nc1ccc(NC(=O)c2ccnn2C)c(C)c1
IC50 [1]: 6820 nM | IC50 [2]: 6890 nM | IC50 [3]: 7010 nM | IC50 [4]: 6660 nM | IC50 [5]: 4830 nM | viability, T/C [6]: 102% | viability, T/C [7]: 114% | viability, T/C [8]: 101% | viability, T/C [9]: 107% | viability, T/C [10]: 110% | viability, T/C [11]: 21.8% | viability, T/C [12]: 105% | viability, T/C [13]: 106% | viability, T/C [14]: 102% | viability, T/C [15]: 114% | viability, T/C [16]: 106% | viability, T/C [17]: 23.1% | viability, T/C [18]: 108% | viability, T/C [19]: 116% | viability, T/C [20]: 102% | viability, T/C [21]: 106% | viability, T/C [22]: 116% | viability, T/C [23]: 23.4% | viability, T/C [24]: 95.8% | viability, T/C [25]: 102% | viability, T/C [26]: 105% | viability, T/C [27]: 105% | viability, T/C [28]: 98.2% | viability, T/C [29]: 23.6% | viability, T/C [30]: 94.1% | viability, T/C [31]: 83.5% | viability, T/C [32]: 89% | viability, T/C [33]: 85.6% | viability, T/C [34]: 62.9% | viability, T/C [35]: 27.7%

CC[C@@]1(O)C(=O)OCc2c1cc1n(c2=O)Cc2cc3c(CN(C)C)c(O)ccc3nc2-1
viability, T/C (compound 0.000316 µM): 93% and 97.1% and 101% | viability, T/C (compound 0.001 µM): 114% and 106% (2×) | viability, T/C (compound 0.00316 µM): 98.4% and 103% and 105% | viability, T/C (compound 0.01 µM): 99.3% and 101% and 106% | viability, T/C (compound 0.0316 µM): 85% and 93.4% and 94.9% | viability, T/C (compound 0.1 µM): 22.1% and 33.6% and 47.4% | IC50 (curve of compound): 59.9 nM and 72.9 nM and 94.7 nM

O=C(C=Cc1cccc(S(=O)(=O)Nc2ccccc2)c1)NO
viability, T/C (compound 0.0316 µM): 84% and 110% and 92.6% | viability, T/C (compound 0.1 µM): 84.6% and 109% and 91.1% | viability, T/C (compound 0.316 µM): 88.4% and 108% and 90% | viability, T/C (compound 1 µM): 69% and 106% and 70.5% | viability, T/C (compound 3.16 µM): 29.5% and 61% and 34.7% | viability, T/C (compound 10 µM): 0.96% and 4.09% and 0.82% | IC50 (curve of compound): 1770 nM and 3950 nM and 1950 nM
